Measurements published in paper PMC11601558, “SLC6A19 inhibition facilitates urinary neutral amino acid excretion and lowers plasma phenylalanine” (JCI Insight, 2024).

System: healthy volunteers
Assay: Phase 1 safety and tolerability, multiple ascending dose (MAD) cohorts
Settings: for Any CTCAE Grade ≥ 3 / Any TEAE / Death / SAE / TEAE Anxiety / TEAE Contusion / TEAE Dehydration / TEAE Dizziness / TEAE Drug withdrawal headache / TEAE Dysmenorrhea / TEAE Flushing / TEAE Headache / TEAE Musculoskeletal pain / TEAE Myalgia / TEAE Nausea / TEAE Oropharyngeal pain / TEAE Rash / TEAE Skin injury / TEAE Somnolence / TEAE Swelling of eyelid / TEAE Thirst / TEAE Vascular access site pain / TEAEs leading to IP discontinuation: n = 6
Method: Eligible participants included males and females 18 to 55 years of age, medically healthy with no clinically notable medical history, a BMI of 18–40 kg/m^2 and total body weight > 50 kg (110 lbs), and who have been nonsmokers for at least 2 weeks prior to and throughout dosing.
In both SAD and MAD studies, safety and tolerability were assessed by AE monitoring, clinical laboratory tests (blood chemistries, hematology, coagulation, serology, and urinalysis), vital signs, 12-lead electrocardiograms, and physical examinations. Safety assessment and corresponding samples were collected on day-1 prior to dosing and days 1, 2, 3, and 8 for the SAD study or throughout the 14 days of dosing and day 21 for the MAD study.

NC(=O)N1CCC[C@@H](N(C(=O)NCc2ccc(OC(F)(F)F)cc2F)C2CC2)C1 [JNT-517]
0 Number (%): Any CTCAE Grade ≥ 3 (MAD 25 mg BID) | Death (MAD 25 mg BID) | SAE (MAD 25 mg BID) | TEAE Anxiety (MAD 25 mg BID) | TEAE Contusion (MAD 25 mg BID) | TEAE Dehydration (MAD 25 mg BID) | TEAE Dizziness (MAD 25 mg BID) | TEAE Dysmenorrhea (MAD 25 mg BID) | TEAE Flushing (MAD 25 mg BID) | TEAE Myalgia (MAD 25 mg BID) | TEAE Nausea (MAD 25 mg BID) | TEAE Rash (MAD 25 mg BID) | TEAE Vascular access site pain (MAD 25 mg BID) | Any CTCAE Grade ≥ 3 (MAD 75 mg BID) | Death (MAD 75 mg BID) | SAE (MAD 75 mg BID) | TEAE Contusion (MAD 75 mg BID) | TEAE Dehydration (MAD 75 mg BID) | TEAE Drug withdrawal headache (MAD 75 mg BID) | TEAE Musculoskeletal pain (MAD 75 mg BID) | TEAE Myalgia (MAD 75 mg BID) | TEAE Oropharyngeal pain (MAD 75 mg BID) | TEAE Skin injury (MAD 75 mg BID) | TEAE Somnolence (MAD 75 mg BID) | TEAE Swelling of eyelid (MAD 75 mg BID) | TEAE Thirst (MAD 75 mg BID) | TEAEs leading to IP discontinuation (MAD 75 mg BID) | Any CTCAE Grade ≥ 3 (MAD 150 mg QD) | Death (MAD 150 mg QD) | SAE (MAD 150 mg QD) | TEAE Anxiety (MAD 150 mg QD) | TEAE Dizziness (MAD 150 mg QD) | TEAE Drug withdrawal headache (MAD 150 mg QD) | TEAE Dysmenorrhea (MAD 150 mg QD) | TEAE Flushing (MAD 150 mg QD) | TEAE Musculoskeletal pain (MAD 150 mg QD) | TEAE Nausea (MAD 150 mg QD) | TEAE Oropharyngeal pain (MAD 150 mg QD) | TEAE Rash (MAD 150 mg QD) | TEAE Skin injury (MAD 150 mg QD) | TEAE Somnolence (MAD 150 mg QD) | TEAE Swelling of eyelid (MAD 150 mg QD) | TEAE Thirst (MAD 150 mg QD) | TEAE Vascular access site pain (MAD 150 mg QD) | TEAEs leading to IP discontinuation (MAD 150 mg QD)
5 (83.3) Number (%): Any TEAE (MAD 25 mg BID)
1 (16.7) Number (%): TEAE Drug withdrawal headache (MAD 25 mg BID) | TEAE Musculoskeletal pain (MAD 25 mg BID) | TEAE Oropharyngeal pain (MAD 25 mg BID) | TEAE Skin injury (MAD 25 mg BID) | TEAE Somnolence (MAD 25 mg BID) | TEAE Swelling of eyelid (MAD 25 mg BID) | TEAE Thirst (MAD 25 mg BID) | TEAEs leading to IP discontinuation (MAD 25 mg BID) | TEAE Anxiety (MAD 75 mg BID) | TEAE Dizziness (MAD 75 mg BID) | TEAE Dysmenorrhea (MAD 75 mg BID) | TEAE Flushing (MAD 75 mg BID) | TEAE Headache (MAD 75 mg BID) | TEAE Nausea (MAD 75 mg BID) | TEAE Rash (MAD 75 mg BID) | TEAE Vascular access site pain (MAD 75 mg BID) | TEAE Contusion (MAD 150 mg QD) | TEAE Dehydration (MAD 150 mg QD) | TEAE Myalgia (MAD 150 mg QD)
61.1%: incidence of AE (MAD cohorts, all JNT-517 doses (11 of 18))
3 (50) Number (%): TEAE Headache (MAD 25 mg BID)
2 (33.3) Number (%): Any TEAE (MAD 75 mg BID) | TEAE Headache (MAD 150 mg QD)
4 (66.7) Number (%): Any TEAE (MAD 150 mg QD)
